Several values for one entry are separate records, joined by “and”; a condition that tells them apart may be missing. Equal values may be shown once. Where only a bound is given, the exact number is not on record here.

The results in this text go back to PMC8621605, “Cascade Transformations of 1-R-Ethynyl-9,10-anthraquinones with Amidines: Expanding Access to Isoaporphinoid Alkaloids” (Molecules, 2021).

The test system of data set [1] is MCF7. Description: MTT cytotoxicity assay, breast cancer. Format: cell-based, human. Particulars: Homo sapiens, MCF7, 72 h, read-out: IC50 ± SEM, MCF7. Here is the method:
(§1) The cytotoxicity study of the quinolinones 2–3 was evaluated in vitro by MTT assay on immortalized humane fibroblasts (hTERT), humane breast cancer cell line (MCF7) and humane glioblastoma cell line (U-87MG and) versus doxorubicin as a reference compound.
(§2) Cell lines were obtained from the American Type Culture Collection: U-87 MG (ATCC number HBT-14), MCF7 (ATCC number HTB-22), A549 (ATCC number CRM-CCL), HeLa (ATCC number CCL-2). Immortalized human fibroblasts hTERT (as noncancerous control) were obtained from ICG SB RAS (Novosibirsk, Russia). DMEM with 10% fetal bovine serum (Gibco, Amarillo, TX, USA) was used for culturing. Optical density was measured on a Multiskan RC spectrophotometer (LabSystems, Vantaa, Finland). The MTT test was carried out according to the standard procedure using the reagent 3-(4,5-dimethylthiazol-2-yl)-2,5-diphen-yltetrazolium bromide (MTT, Sigma). Cells were seeded in 96 well plates at 5000 cells/well and incubated for 24 h at 37 C in 5% CO2. After 24 h, various concentrations of test compounds ([…]) in DMSO were added and the cells were incubated for an additional 72 h. The viability for DMSO (negative control) was calculated as 100%. All culture experiments were carried out independently three times with two repeats in the experiment, and the final result is presented as concentration, which causes 50% inhibition of cell population growth (IC50 ± SEM).

For data set [2], the system named is U-87 MG. The data set is described as follows: MTT cytotoxicity assay, glioblastoma. The conditions noted are these: Homo sapiens, U-87 MG, 72 h, read-out: IC50 ± SEM, U-87 MG. Format: cell-based, human. Here is the method: as §1, §2
Data set [3] has as its system A549. Description: MTT cytotoxicity assay, A549. Format: cell-based. Particulars: Homo sapiens, 72 h, read-out: IC50 ± SEM, A549. Here is the method:
as §2
(In general: Tetrazolium dyes change colour on reduction, which living cells bring about.)

Data set [4] has as its system Concanavalin A-Induced Inflammation. Description: Concanavalin A-induced mouse paw edema model. Format: in vivo, C57BL/6 female mice. The conditions noted are these: for inhibition in vivo at 20 mg/kg: Mus musculus, ip, anti-inflammatory activity relative to control group, read-out: Concanavalin A-Induced Inflammation AIA, %; for inhibition in vivo at 20 mg/kg / Concanavalin A-Induced Inflammation IEI, %: 20 mg/kg i.p. twice; for Concanavalin A-Induced Inflammation IEI, %: inflammatory edema index, 24 h and 1 h before phlogogen, mean ± SEM. An excerpt: (§3) The anti-inflammatory activity of the synthesized compounds was investigated in vivo in comparison with indomethacin on two models of local inflammation induced by histamine or concanavalin A injection. The last one was used as the inductor of allergic-like inflammation, owing to its immunogenic activity. The results were expressed as values of inflammatory edema indexes (IEI) and percentages of anti-inflammatory activity (AIA) relative to the control group (Table 1).
(§4) The pharmacological studies were carried out on outbred albino male mice and C57BL/6 female mice weighing 20–25 g with eight animals in each group. The anti-inflammatory activity of compounds 2–3 was evaluated in the histamine-induced and concanavalin A-induced mouse paw edema models. The test compounds were dissolved in saline containing 0.5% Tween 80 just before intraperitoneal administration at the dose of 20 mg/kg. The reference agent indomethacin (‘Fluka BioChemica’) was administered by the same method and dose. The control group of animals received an equivalent volume of water–Tween mixture.
The 8 female mice C57Bl/6 were subplantar injected into the hind paw with 0.02 mL 0.5% concanavaline A (“Sigma Aldrich”) aqueous solution. The test compounds were administered twice 24 h and 1 h before phlogogen. The animals were sacrificed by cervical dislocation 1 h after the phlogogen injection.
(§5) Both hind paws were cut off at the ankle joint and weighed. The ratio of the difference in weight between the treated and untreated hind paws to the weight of the untreated hind paw was used as an inflammatory edema index (IEI). The relative percentage of IEI versus control IEI (100%) was calculated for each test group. The anti-inflammatory activity (AIA) was presented as a difference between 100% in the control group and relative percentage of IEI in the test group.

Data set [5] concerns HeLa. The data set is described as follows: MTT cytotoxicity assay, cervical cancer. Format: cell-based. The conditions noted are these: Homo sapiens, HeLa, 72 h, MTT, 72 h; read-out: IC50 ± SEM, HeLa. Here is the method:
as §2

For data set [6], the system named is hTERT. Description: MTT cytotoxicity assay, immortalized fibroblasts. Format: cell-based, human. Particulars: Homo sapiens, Fibroblast, 72 h, read-out: IC50 ± SEM, hTERT. Here is the method: as §1, §2
The test system of data set [7] is Histamine-Induced Inflammation. Description: Histamine-induced mouse paw edema model. Format: in vivo, outbred albino male mice. Particulars: for inhibition in vivo at 20 mg/kg: Mus musculus, ip, anti-inflammatory activity relative to control group, read-out: Histamine-Induced Inflammation AIA, %; for Histamine-Induced Inflammation IEI, %: inflammatory edema index, 20 mg/kg i.p. 1 h before histamine, mean ± SEM.
From the text: as §3, §4
The 8 outbred male albino mice were subplantar injected into the hind paw with 0.05 mL 0.01% histamine (“Sigma Aldrich”, Saint Louis, MO, USA) in water solution. The tested compounds were administered 1 h before the histamine injection. The animals were sacrificed by cervical dislocation 5 h after the phlogogen injection.
as §5

Consider `CC(=O)c1ccc(-c2cc3cccc4c3c(n2)-c2ccccc2C4=O)cc1` [3b, 2-(p-acetylphenyl)-7H-dibenzo[de,h]quinolin-7one], for which the melting point fell in the range of 324 to 325 °C. Moreover, the IC50 in data set [1] is more than 100 µM. Further, the 50% inhibitory concentration (IC50) in data set [2] is more than 100 µM. In addition, the IC50 in data set [3] is more than 100 µM. Moreover, the “anti-inflammatory effect (in words)” value in data set [4] (20 mg/kg i.p.) was “most potent effects”. Further, in data set [4], the inhibition in vivo at 20 mg/kg is 52% and the “Concanavalin A-Induced Inflammation IEI, %” value was found to be 18.0 ± 2.0 %. Besides, the concentration for half-maximal inhibition (IC50) in data set [5] is more than 100 µM. Moreover, the IC50 in data set [6] was more than 100 µM. Further, in data set [7] (20 mg/kg i.p.), the “anti-inflammatory effect (in words)” value is “most potent effects” and the inhibition in vivo at 20 mg/kg worked out at 36%. Also, in data set [7], the “Histamine-Induced Inflammation IEI, %” value was 22.1 ± 1.8 %.
Turning to `COc1ccc(-c2cc3cccc4c3c(n2)-c2ccccc2C4=O)cc1` [3d, 2-(p-methoxyphenyl)-7H-dibenzo[de,h]quinolin-7-one], the melting point fell in the range of 203 to 204 °C. Moreover, in data set [1], the half-inhibitory concentration (IC50) was more than 100 µM. Also, the 50% inhibitory concentration (IC50) in data set [2] was more than 100 µM. For the same compound, the IC50 in data set [3] was more than 100 µM. Further, the “activity higher than that of indomethacin (reference drug)” value in data set [4] (20 mg/kg double i.p. administration) is 1.5 times and 1.3–1.4 times. In data set [4], the inhibition in vivo at 20 mg/kg was determined as 60% and the “Concanavalin A-Induced Inflammation IEI, %” value worked out at 15.2 ± 1.6 %. Further, the IC50 in data set [5] is more than 100 µM. Also, in data set [6], the concentration for half-maximal inhibition (IC50) is more than 100 µM. In addition, the inhibition in vivo at 20 mg/kg in data set [7] (20 mg/kg i.p.) stood at 42%. For the same compound, the “Histamine-Induced Inflammation IEI, %” value in data set [7] amounted to 19.9 ± 2.6 %.

A word on the IC50: it is the concentration that gives 50% inhibition. As usually defined, the melting point is the temperature, or range, at which the solid turns liquid.
